This is an account of results in publication PMC2852842, “Marine Natural Meroterpenes: Synthesis and Antiproliferative Activity” (Marine Drugs, 2010).

In brackets after ≈: the same amount, converted by molar mass. Read-outs that look alike come from different tables or passages of the source.

By IC50 is commonly meant the midpoint of a concentration-inhibition curve. As a reminder, the MIC is the lowest concentration found to suppress growth. A lower MIC goes with greater potency. As usually defined, the melting point is the temperature of the solid-liquid transition.

One series deals with Micrococcus luteus. As to the kind of experiment: Microtiter Broth Dilution antibacterial assay. Type of series: cell-based. Conditions: for antibacterial effect (in words): M. luteus; for MIC: Micrococcus luteus, 24 h. As to the method:
(§1) The Microtiter Broth Dilution Method on gram negative (Escherichia coli) and gram positive (Micrococcus luteus) bacteria was used. Meroterpenes dissolved in DMSO were added to bacteria suspensions (5:100 v:v) for 24 hours. The assay was carried out in triplicate. Bacterial growth was evaluated by absorbance measurement (630 nm). The minimum concentration that inhibits (MIC) bacterial growth was determined for each compound on each bacterial strain.
(§2) The antibacterial assay used was based on the previously described method published by the […].
Background: Broth dilution looks for growth in wells or tubes with falling amounts of substance.

In another series the test system is Escherichia coli. As to the kind of experiment: Microtiter Broth Dilution antibacterial assay. The series is classed as cell-based. Conditions: for antibacterial effect (in words): E. coli. The protocol:
as §1, §2

The subject of series [1] is Paracentrotus lividus eggs. Description: Inhibition of sea urchin egg division. Type of series: cell-based. As to the method: (§3) For cytotoxic assays on sea urchins, meroterpenes were dissolved in an egg suspension (described in the experimental section), and their ability to inhibit 50% of cell division (IC50) was estimated. Each experiment was carried out in triplicate and an average taken.
(§4) For antiproliferative assays on sea urchin eggs, we used a previously described method.

In series [2] the test system is Sphaerechinus granularis eggs. Description: Inhibition of sea urchin egg division. The series is classed as cell-based. Conditions: for IC50: read-out: IC50 S. granularis. The protocol: as §3, §4
The subject of series [3] is MCF7, PA1, PC3, L-929 cells and human normal fibroblasts. Description: Resazurin reduction test (RRT) cytotoxicity, whole panel of cell lines. Type of series: cell-based. Conditions: span over the cell lines, 48 hour exposure, read-out: IC50, varied with the cell lines. As to the method:
To provide information on their antiproliferative activity against solid cancers, the six meroterpenes were tested on three human carcinoma cell lines corresponding to cancers commonly observed in Western countries: MCF7 (breast), PA1 (ovary) and PC3 (prostate). To obtain additional information on their specificity for human cell lines and their specificity for cancer versus normal cell lines, each compound was tested versus L-929 murine immortalized cells and human normal fibroblasts. To mimic what happens in vivo, assays were carried out on exponentially growing cells cultured in the presence of 10% serum. The growth inhibitory effect was determined by measuring, after a 48 hour exposure to each chemical, the metabolic activity of treated and control cultures using the resazurin reduction test (RRT), which measures the amount of fluorescent resofurin produced by living cells. […] A dose-dependent inhibition of cell proliferation was only observed for epiconicol (3a). […]
The cytotoxicity of each treatment was determined after a 48 h exposure to each chemical (6 concentrations in triplicate, each in DMSO 0.5%) by means of the resazurin reduction test (RRT) that measures the amount of fluorescent resorufin produced by living cells. […] IC50 values (mean ± S.D.) were calculated with the ALLFIT program and were expressed in μM.
In general terms: Resazurin is reduced to fluorescent resorufin, in cell work by metabolically active cells.

Series [4] deals with MCF7 breast adenocarcinoma cells. As to the kind of experiment: Resazurin reduction test (RRT) cytotoxicity. Particulars: for IC50: Homo sapiens. The series is classed as cell-based, human. As to the method:
(§5) To provide information on their antiproliferative activity against solid cancers, the six meroterpenes were tested on three human carcinoma cell lines corresponding to cancers commonly observed in Western countries: MCF7 (breast), PA1 (ovary) and PC3 (prostate). To obtain additional information on their specificity for human cell lines and their specificity for cancer versus normal cell lines, each compound was tested versus L-929 murine immortalized cells and human normal fibroblasts. To mimic what happens in vivo, assays were carried out on exponentially growing cells cultured in the presence of 10% serum. The growth inhibitory effect was determined by measuring, after a 48 hour exposure to each chemical, the metabolic activity of treated and control cultures using the resazurin reduction test (RRT), which measures the amount of fluorescent resofurin produced by living cells. […] A dose-dependent inhibition of cell proliferation was only observed for epiconicol (3a). […] The toxicity of epiconicol observed in our model is in agreement with data obtained by Caroll and co-workers on a panel of cancer cells.
(§6) Human primary fibroblasts were purchased from Biopredic International (Rennes, France). Immortalized murine L929 cells and human MCF7 breast adenocarcinoma, PA1 ovary teratocarcinoma and PC3 androgen-resistant prostate carcinoma cells were obtained from the European Collection of Cell Cultures (ECACC, Salibury, UK). All were cultured at 37 °C under 5% CO2 and maintained in Eagle’s minimum essential medium (Gibco-BRL, Paisley, Scotland) supplemented with 10% fetal calf serum, vitamins and antibiotics (Gibco™, Cergy-Pontoise, France) as described previously.
(§7) The cytotoxicity of each treatment was determined after a 48 h exposure to each chemical (6 concentrations in triplicate, each in DMSO 0.5%) by means of the resazurin reduction test (RRT) that measures the amount of fluorescent resorufin produced by living cells. Assays were carried out at 530/590 nm accordingly to the procedure described by Barthomeuf et al.. IC50 values (mean ± S.D.) were calculated with the ALLFIT program and were expressed in μM.

Series [5] has as its system PA1 ovary teratocarcinoma cells. As to the kind of experiment: Resazurin reduction test (RRT) cytotoxicity. Type of series: cell-based, human. Conditions: for IC50: Homo sapiens. The protocol:
as §5, §6, §7

For series [6], the system named is PC3 androgen-resistant prostate carcinoma cells. As to the kind of experiment: Resazurin reduction test (RRT) cytotoxicity. The series is classed as cell-based. Particulars: Homo sapiens. The protocol:
as §5, §6, §7

Another series has as its system human normal fibroblasts. Description: Resazurin reduction test (RRT) cytotoxicity. The series is classed as cell-based. Conditions: Fibroblast. The protocol:
as §5, §6, §7

Series [7] relates to L-929 murine immortalized cells. Description: Resazurin reduction test (RRT) cytotoxicity. Type of series: cell-based. Conditions: Mus musculus. As to the method: as §5, §6, §7
A further series deals with sea urchin embryos. On the set-up: method as in PMID 17448456. Conditions: cited from earlier work.
The test system of another series is S.s granularis eggs. Description: HPLC analysis of cytoplasmic extracts of treated sea urchin eggs. Type of series: in vitro ADME, Sphaerechinus granularis. Conditions: eggs treated with 5 μM. The protocol: To test the latter hypothesis, S.s granularis eggs were treated with 5 μM of methoxyconidiol, a concentration that inhibits their division. Sea urchin eggs were incubated 1, 40 and 90 minutes post-fertilization (p.f.) in the presence of methoxyconidiol. Cytoplasmic extracts of treated and control eggs were further prepared. Organic extracts of the cytoplasmic preparations were finally obtained and analyzed by HPLC (Figure 3).
Figure 3 HPLC analysis of methoxyconidiol (System WATERS, column: synergy 4 μm RP max; elution water: methanol under a gradient; UV detection 285 nm; flow: 0.3 mL/min) A: control compound (methoxyconidiol) B: analysis after Solid Phase Extraction at 1, 40 and 90 minutes after fertilization (min p.f.).
Preparation of cytoplasmic extracts was based on the technique described by Collas and Poccia. Gametes of P. lividus were collected in two separate beakers. Sperm was maintained undiluted on ice and eggs were stored at 19 °C until use. Sperm was diluted to 10% in Filtered Sea Water (FSW) and eggs were at 26 eggs/μL in FSW. […]
Cytoplasmic extracts of treated and control eggs were extracted with CH3OH and CH2Cl2 and analyzed by HPLC. […] This fraction was analyzed in HPLC (column: Phenomenex synergy 4μ max RP; elution with water and methanol under gradient, starting from 30% to 0% of water during 15 minutes; flow: 0.3 mL/min; detection photodiode array, UV at 285 nm).

In another series the test system is Micrococus luteus. On the set-up: method as in PMID 17448456. Conditions: cited from earlier work.
A further series concerns Streptococcus faecalis. Also on record: method as in PMID 3404153, PMID 7608321. Particulars: cited from earlier work.
A further series has as its system Staphyclococcus aureus. On the set-up: method as in PMID 3404153, PMID 7608321. Particulars: cited from earlier work.
[8] abbreviates: Paracentrotus lividus, 85 min, read-out: IC50 P. lividus, egg division, 85 minutes after fertilization.
The mark [9] stands for this setting: Sphaerechinus granularis, 85 min.

In the case of `COc1ccc2c(c1)[C@H]1C=C(C)CC[C@H]1C(C)(C)O2` (relative stereo) [3b], the “antibacterial effect (in words)” value in the series on Micrococcus luteus and with Escherichia coli was “totally inactive” in each case. The IC50 in [1] (setting [8]) and in series [2] (setting [9]) was over 25 µM throughout.
As for `COc1ccc(O)c([C@@H]2C=C(C)CC[C@@H]2C(C)(C)OC)c1` (relative stereo) [5b], the IC50 in series [1] (Paracentrotus lividus, 85 min, egg division, 85 minutes after fertilization, read-out: IC50 P. lividus) was over 25 µM; in [2] (Sphaerechinus granularis, 85 min, egg division, 85 minutes after fertilization), over 25 µM.
In the case of `CC1=C[C@@H]2c3cc(O)ccc3OC(C)(C)[C@@H]2CC1` [3a, epiconicol], the IC50 in series [3] was 37 to 69 µM; in series [2] (setting [9]), 9.8 ± 1.3 µM. Besides, the “antibacterial effect (in words)” value in the series with Micrococcus luteus and in the series with Escherichia coli was “weakly active” in each case. The MIC came to 100 µM (≈ 24.4 µg/mL) in the series on Micrococcus luteus and 800 µM (≈ 195 µg/mL) against Escherichia coli (Escherichia coli, 24 h). Besides, the cultures killed in series [4] (MCF7, at 5 μM) amounted to 30%; in [5] (PA1, at 5 μM) it was 30%.
Take `Cc1ccc2c(c1)-c1cc(O)ccc1OC2(C)C` [4a, didehydroconicol]: the “antibacterial effect (in words)” value in the series with Micrococcus luteus is “weakly active”. In the series on Micrococcus luteus, this compound showed an MIC of 500 µM (≈ 120 µg/mL). Also, the IC50 in [4] (MCF7, 48 h) is over 100 µM; in series [5] (48 h), over 100 µM; in [6] (48 h) it was over 100 µM; in the series on human normal fibroblasts (Homo sapiens, 48 h) it was over 100 µM; in [7] (L929, 48 h), over 100 µM; in series [1] (setting [8]), 11.3 ± 0.8 µM. The IC50 in series [2] (setting [9]) is over 25 µM. The “activity on egg division (in words)” value in series [2] (S. granularis eggs) is “inactive”.
With `COc1ccc2c(c1)-c1cc(C)ccc1C(C)(C)O2` [4b, O-methyldidehydroconicol], the “antibacterial effect (in words)” value in the series on Micrococcus luteus and in the series on Escherichia coli was “totally inactive” throughout. For the same compound, the IC50 in series [1] (setting [8]) and in series [2] (setting [9]) was over 25 µM in each case.
`COC(C)(C)[C@H]1CCC(C)=C[C@H]1c1cc(O)ccc1O` [5a, methoxyconidiol]: the melting point came to 197 °C. The IC50 in series [4] (MCF7, 48 hour exposure, 10% serum, RRT, read-out: IC50) was over 100 µM. For the same compound, the IC50 in series [5] (PA1, 48 hour exposure, 10% serum, RRT, read-out: IC50) is over 100 µM. For the same compound, the 50% inhibitory concentration (IC50) in series [6] (PC3, 48 hour exposure, 10% serum, RRT, read-out: IC50) is over 100 µM. For the same compound, in the series with human normal fibroblasts (human normal fibroblasts, 48 hour exposure, 10% serum, RRT, read-out: IC50), the IC50 was over 100 µM. Further, in [7] (L929, L-929, 48 hour exposure, 10% serum, RRT, read-out: IC50), the IC50 was over 100 µM. The “effect on sea urchin embryos during cell division” value with sea urchin embryos was “disturbs mitotic spindle assembly leading to a cell cycle arrest during metaphase/anaphase transition”. The “level of the compound in cytoplasmic extracts during incubation” value in the series with S.s granularis eggs (1, 40 and 90 minutes post-fertilization, HPLC) is on record as “did not decrease significantly”. Besides, the “penetration through sea urchin cell membranes” value in the series with S.s granularis eggs (presence in the cytoplasm) is reported as “penetrates through sea urchin cell membranes”. Further, in series [1] (egg division, 85 minutes after fertilization, listed as methoxyconidiol, read-out: IC50 P. lividus), the IC50 was 0.8 µM. In [1] (egg division, 85 minutes after fertilization, read-out: IC50 P. lividus), the IC50 was determined as 4.3 ± 0.1 µM. Besides, the IC50 in series [2] (egg division, 85 minutes after fertilization, listed as methoxyconidiol) is 4.3 µM. Besides, the IC50 in [2] (egg division, 85 minutes after fertilization) is 0.8 µM.
Regarding `CC(C)=CCCC1(C)C=Cc2cc(O)ccc2O1` (centres unmarked) [cordiachromene A], the “growth inhibition (in words)” value in the series on Micrococus luteus, with Streptococcus faecalis and in the series on Staphyclococcus aureus was “moderately inhibits” each time.
